Experimental data taken from patent US10543189B2, “2-acetylnaphtho[2,3-b]furan -4,9-dione for use on treating cancer” (Boston Biomedical, Inc., priority 2013, dated 2020).
Values joined by “and” are separate entries in the source; they are usually repeats but may differ in a detail not shown here. Equal entries are not always repeated. Where two headings read alike, the source gives them in different places.

Experiments:
[1] = Phase I dose escalation trial: pharmacokinetic profile; type: in vivo, human
[2] = tested on: CD44^high cells (FaDu); assay: CD44high sphere growth; type: cell-based; settings: FACS-isolated from FaDu, sphere culture, five days of treatment, FIG. 5
Protocol: CD44^high cells were isolated by FACS (FaDu) and were cultured in the absence of attachment and serum for 5 days to form primary spheres. Primary spheres were then dissociated in Accumax (eBioscience, San Diego, Calif.) to single cells, and were cultured as above for 72 hours before the addition of the indicated concentrations of therapeutic agents. After five days of treatment, representative sphere images were captured.
CD44^high cells were isolated by FACS (FaDu) and their growth was blocked by a Compound of the Invention (FIG. 5).

[3] = Phase I dose escalation trial: pharmacokinetic profile; type: in vivo, human; settings: for Tmax / AUC(0-t) / concentration at 24 h / half-life / Cmax / AUC: human, plasma, oral, patient plasma; for AUC(0-t): read-out: AUC0-24; for concentration at 24 h: read-out: C24h; for half-life: read-out: T1/2,t (converted)
Protocol: Pharmacokinetics profile with oral bid dosing was also studied. The plasma concentration of the drug reached several folds over the efficacious concentration (in vitro IC50) as illustrated in Table 8.
To maintain drug plasma concentration at or above the efficacious level for a desirable duration and to further increase peak plasma concentration, we studied the pharmacokinetics of a 500 mg BID regimen (at 4 hour interval between two doses on the same day or “q4h”), and compared it to that of a 500 mg QD regimen (FIG. 1). […] In another suitable dosing regimen, 500 mg of Compound 1 were administered three times a day (TID) to human subjects.

[4] = Pharmacokinetics when taken fasting, with milk or with food; type: in vivo, human; settings: for Tmax: human, in vivo, oral
Protocol: In yet another suitable dosing regimen, Compound 1 was administered with a fluid, e.g., a milk or water, with empty stomach which improves pharmacokinetical exposure (Table 12). Counterintuitively, milk helped patients with gastrointestinal adverse effects.
In yet another suitable dosing regimen, Compound 1 was administered with food which delayed the Tmax (Table 13).

[5] = tested on: phosphorylated STAT3 (p-STAT3); assay: Immunohistochemistry of CRC patient tumor tissue for p-STAT3; type: in vivo, human; settings: 100 mg/kg QD (single daily dosage), FIG. 3A
Protocol: CRC patient's archival tumor tissue samples were analyzed through immunohistochemistry (IHC) using labeled antibodies against phosphorylated STAT3 (p-STAT3). […] For instance, 40% of the patients with high p-STAT3 levels before treatment survived longer than 100 weeks whereas only 10% of those with low or no p-STAT3 levels before treatment survived beyond 100 weeks. This further confirms that the Compound of the Invention downregulates that STAT3 pathway, and that the STAT3 pathway is implicated in colorectal cancers.

[6] = tested on: β-catenin; assay: Immunohistochemistry of CRC patient tumor tissue for β-catenin; type: in vivo, human; settings: FIG. 4A
Protocol: CRC patient's archival tumor tissue samples were analyzed through immunohistochemistry (IHC) using labeled antibodies against β-catenin. […] For instance, close to 40% of the patients with high nuclear β-catenin levels before treatment survived longer than 100 weeks whereas none of those with high levels of membranous β-catenin survived beyond 25 weeks. This further confirms that the Compound of the Invention disrupts or somehow modulates the β-catenin function, and that the β-catenin pathway is implicated in colorectal cancers.

[7] = Phase I dose escalation trial: safety, tolerability, adverse events; type: in vivo, human; settings: Phase 1, dose escalated from 20 mg to 2000 mg/day
Source text: The most common adverse events were: diarrhea, nausea, and fatigue. Grade 3 or greater events include: fatigue and diarrhea.

[8] = human, plasma, oral, 20 mg, Total Daily Dose 20 (mg), qd, patient plasma
[9] = 20 mg, Total Daily Dose 20 (mg), qd
[10] = 40 mg, Total Daily Dose 40 (mg), qd
[11] = 80 mg, Total Daily Dose 80 (mg), bid q4h
[12] = 80 mg, Total Daily Dose 80 (mg), qd
[13] = 160 mg, Total Daily Dose 160 (mg), bid q4h
[14] = 320 mg, Total Daily Dose 320 (mg), bid q4h
[15] = 400 mg, Total Daily Dose 400 (mg), bid q4h
[16] = 600 mg, Total Daily Dose 600 (mg), bid q4h
[17] = 800 mg, Total Daily Dose 800 (mg), bid q4h
[18] = 1000 mg, Total Daily Dose 1000 (mg), bid q4h
[19] = 1000 mg, Total Daily Dose 1000 (mg), bid q6h
[20] = 1400 mg, Total Daily Dose 1400 (mg), bid q4h
[21] = 1500 mg, Total Daily Dose 1500 (mg), tid q4h
[22] = 2000 mg, Total Daily Dose 2000 (mg), bid q4h

For CC(=O)c1cc2c(o1)C(=O)c1ccccc1C2=O [Compound 1, 2-acetylnaphtho[2,3-b]furan-4,9-dione], the “clearance from the blood” value ([1]; 20 mg QD, humans) was “rapidly cleared from the blood”, the “concentration of the compound in urine of the patient” value ([1]; 20 mg daily administration) was “surprisingly high concentration” and the AUC [1, 8] was 2.7 µM·h. The Cmax [1, 8] was 490 nM, the AUC ([1]; human, plasma, oral, 40 mg, Total Daily Dose 40 (mg), qd, patient plasma) was 3.62 µM·h and the AUC ([1]; human, plasma, oral, 80 mg, Total Daily Dose 80 (mg), qd, patient plasma) was 13.3 µM·h. The “CD44^high cells growth” value [2] was “blocked”, the “patient exposure, 500 mg three times a day (TID) versus twice daily” value ([3]; human subjects) was “not significantly improved” and the Tmax [3, 9] was 3 h. The AUC(0-t) [3, 9] was 2.01 µM·h, the concentration at 24 h [3, 9] was 30 nM and the half-life [3, 9] was 18.5 h. It also gave a Cmax [3, 10] of 500 nM, a Tmax [3, 10] of 0.5 h and an AUC(0-t) [3, 10] of 3.44 µM·h. For the same molecule, the concentration at 24 h [3, 10] was 30 nM, the half-life [3, 10] was 4.5 h and the AUC [3, 11] was 8.13 µM·h. It also gave a Cmax [3, 11] of 900 nM, a Tmax [3, 11] of 8.1 h and an AUC(0-t) [3, 11] of 7.95 µM·h. It also gave a concentration at 24 h [3, 11] of 30 nM, a half-life [3, 11] of 3.6 h and a Cmax [3, 12] of 2240 nM. It also gave a Tmax [3, 12] of 1.5 h, an AUC(0-t) [3, 12] of 12.8 µM·h and a concentration at 24 h [3, 12] of 70 nM. For the same molecule, the half-life [3, 12] was 5.2 h, the Cmax [3, 13] was 1330 nM and the Tmax [3, 13] was 3.9 h. It also gave an AUC [3, 14] of 38.3 µM·h, a Cmax [3, 14] of 2920 nM and a Tmax [3, 14] of 3.8 h. For the same molecule, the AUC(0-t) [3, 14] was 33.1 µM·h, the concentration at 24 h [3, 14] was 240 nM and the half-life [3, 14] was 5.7 h. It also gave an AUC [3, 15] of 48.2 µM·h, a Cmax [3, 15] of 3750 nM and a Tmax [3, 15] of 7.9 h. For the same molecule, the AUC(0-t) [3, 15] was 40.2 µM·h, the concentration at 24 h [3, 15] was 620 nM and the half-life [3, 15] was 6.9 h. The AUC [3, 16] was 37.1 µM·h, the Cmax [3, 16] was 2670 nM and the Tmax [3, 16] was 3.2 h. It also gave an AUC(0-t) [3, 16] of 27.8 µM·h, a concentration at 24 h [3, 16] of 420 nM and a half-life [3, 16] of 9 h. For the same molecule, the AUC [3, 17] was 27 µM·h, the Cmax [3, 17] was 3040 nM and the Tmax [3, 17] was 4.3 h. For the same molecule, the AUC(0-t) [3, 17] was 26.1 µM·h, the concentration at 24 h [3, 17] was 160 nM and the half-life [3, 17] was 4 h. For the same molecule, the AUC [3, 18] was 50.7 µM·h, the Cmax [3, 18] was 4970 nM and the Tmax [3, 18] was 6.6 h. The AUC(0-t) [3, 18] was 45.1 µM·h, the concentration at 24 h [3, 18] was 290 nM and the half-life [3, 18] was 6.6 h. The AUC [3, 19] was 22.9 µM·h, the Cmax [3, 19] was 1360 nM and the Tmax [3, 19] was 5.7 h. The AUC(0-t) [3, 19] was 15.8 µM·h, the concentration at 24 h [3, 19] was 330 nM and the half-life [3, 19] was 12.7 h. It also gave an AUC [3, 20] of 45 µM·h, a Cmax [3, 20] of 2050 nM and a Tmax [3, 20] of 2.9 h. For the same molecule, the AUC(0-t) [3, 20] was 28.2 µM·h, the concentration at 24 h [3, 20] was 650 nM and the half-life [3, 20] was 13.6 h. For the same molecule, the AUC [3, 21] was 59.9 µM·h, the Cmax [3, 21] was 3750 nM and the Tmax [3, 21] was 7.3 h. It also gave an AUC(0-t) [3, 21] of 46.4 µM·h, a concentration at 24 h [3, 21] of 940 nM and a half-life [3, 21] of 8.2 h. It also gave an AUC [3, 22] of 45.8 µM·h, a Cmax [3, 22] of 1690 nM and a Tmax [3, 22] of 6.3 h. The AUC(0-t) [3, 22] was 25.9 µM·h, the concentration at 24 h [3, 22] was 800 nM and the half-life [3, 22] was 17.2 h. For the same molecule, the “pharmacokinetics, 500 mg BID (q4h) versus 500 mg QD” value ([3]; patients, FIG. 1) was “no significant difference”, the Tmax ([4]; Patient 20, Fasting) was 2 h and the Tmax ([4]; Patient 20, With Food) was 8 h. For the same molecule, the Tmax ([4]; Patient 20, With Milk) was 2 h, the Tmax ([4]; Patient 21, Fasting) was 6 h and the Tmax ([4]; Patient 21, With Food) was 6 h. It also gave a Tmax ([4]; Patient 21, With Milk) of 6 h, a Tmax ([4]; Patient 22, Fasting) of 8 h and a Tmax ([4]; Patient 22, With Food) of 10 h. For the same molecule, the Tmax ([4]; Patient 22, With Milk) was 8 h, the Tmax ([4]; Patient 24, With Food) was 10 h and the Tmax ([4]; Patient 24, With Milk) was 6.3 h. It also gave a Tmax ([4]; Patient 27, With Food) of 6 h, a Tmax ([4]; Patient 27, With Milk) of 0.5 h and a Tmax ([4]; Patient 28, With Food) of 10 h. For the same molecule, the Tmax ([4]; Patient 28, With Milk) was 6 h, the “AUC0-24hrs Fold Change” value ([4]; with Milk versus Fasting) was 1.56 and 1.55 and the “Cmax Fold Change” value ([4]; with Milk versus Fasting) was 1.52 and 1.13. For the same molecule, the “p-STAT3 in the patient tissue after treatment (IHC)” value [5] was “almost no longer any detectable p-STAT3”, the “accumulation of β-catenin in cell nucleus in tumor tissues (IHC)” value [6] was “effective in removing or preventing the accumulation of β-catenin in cell nucleus” and the “maximum tolerated dose (MTD)” value [7] was “not reached”.
